Article PMC10314922, “Fluorescence lifetime FRET assay for live-cell high-throughput screening of the cardiac SERCA pump yields multiple classes of small-molecule allosteric modulators” (Scientific Reports, 2023)
Where “and” joins values, the source holds several entries; their conditions need not be identical. Equal entries are not always repeated. Entries after “also recorded” stand apart in the source; their conditions may differ.

Legend:
SERCA2a [1] = biological target: T1, SERCA2a (Sus scrofa, UniProt P11607); assay: Oxalate-supported Fluo-4 Ca2+-uptake (Ca2+-transport) assay in pig cardiac SR (pCSR) vesicles; format: biochemical; conditions: for Ca2+-Uptake C10: concentration yielding 10% effect; for CR (coupling ratio) VU/VA: maximum Ca2+-uptake rate / Ca2+-ATPase rate at [Ca2+]MAX, DMSO control = 0.66; for Inhibition of Ca2+-uptake (class): strong / moderate / mild; for Ca2+-Uptake ΔFMAX / Ca2+-Uptake ΔFMID: maximal compound effect vs DMSO control, pCSR; for Effect on Ca2+-uptake (category, Fig. 4A): activators, categories activate / uncouple / inhibit; for Increase in Ca2+-uptake: over [Ca2+]MAX and [Ca2+]MID; for Decrease (inhibition) of Ca2+-uptake at [Ca2+]MAX: size of decrease
T1 construct: Cardiac SR vesicles were isolated from fresh porcine left ventricular tissue using differential centrifugation; from tissue; host or cells: porcine left ventricular tissue (cardiac SR vesicles)
Description: (§1) Cardiac SR vesicles were isolated from fresh porcine left ventricular tissue using differential centrifugation of the homogenized tissue as previously described. The SR vesicles were flash-frozen and stored at − 80 °C until needed. The SERCA concentration in the ER preparations purified from HEK cell homogenate is at least 10 times less than in purified porcine cardiac SR[20], but there was sufficient expression of the fluorescent SERCA2a biosensor in HEK cells to detect FRET with high precision by FLT[22],[23],[26].
Ca^2+-transport assays were performed with similar porcine SR samples as in the Ca^2+-ATPase assays described above. The compound effect on the Ca^2+-transport activity of SERCA2a was determined using an oxalate-supported assay in which the change in fluorescence in a Ca^2+-sensitive dye, Fluor-4, was determined as previously described. A buffered solution containing 50 mM MOPS (pH 7.0), 100 mM KCl, 30 mg/mL sucrose, 1 mM EGTA, 10 mM potassium oxalate, 2 µM Fluo-4, 30 µg/mL porcine cardiac SR vesicles, CaCl2 calculated to reach the free [Ca^2+] (pCa 8.0, 6.2, and 5.4), and compound (0.048 to 50 μM) was dispensed into 384-well black walled, transparent bottomed plates (Greiner Bio-One) containing the tested small molecule and incubated at 22℃ for 20 min while covered and protected from light. To start the reaction, MgATP was added to a final concentration of 5 mM, and the decrease in 485-nm excited fluorescence of Fluo-4 was monitored at 520 nm for 15 min using a FLIPR Tetra (Molecular Devices, San Jose, CA).
(§2) SERCA2a activity, F (rate of ATP hydrolysis or Ca^2+ uptake), was measured at varying pCa and varying compound concentration. F measured at [Ca^2+]MAX (saturating, pCa 5.4) or [Ca^2+]MID (subsaturating, midpoint, pCa 6.2) was corrected by subtracting the basal rate at pCa 8.0) and the % effect due to compound was reported. Concentration response curves (CRC) were fitted using the Hill function to determine VMAX (the activity at saturating [compound]), and EC50, the compound concentration at 50% effect.

SERCA2a [2] = biological target: T1, SERCA2a; assay: NADH-linked Ca2+-ATPase activity assay in pig cardiac SR (pCSR) vesicles; format: biochemical; conditions: for Ca2+-ATPase C10: concentration yielding 10% effect; for Ca2+-ATPase ΔFMAX / Ca2+-ATPase ΔFMID: maximal compound effect vs DMSO control, pCSR; for Effect on Ca2+-ATPase activity (category, Fig. 4A): activators, categories activate / uncouple / inhibit
Description: as §1
Functional assays were performed using porcine cardiac SR (pCSR) vesicles. An enzyme-coupled, NADH-linked ATPase assay was used to measure SERCA ATPase activity in 384-well microplates. Each well contained 50 mM MOPS (pH 7.0), 100 mM KCl, 1 mM EGTA, 0.2 mM NADH, 1 mM phosphoenol pyruvate, 10 IU/mL of pyruvate kinase, 10 IU/mL of lactate dehydrogenase, 7 µM of the calcium ionophore A23187 (Sigma), and CaCl2 was added to set free [Ca^2+] to three different concentrations. Ca^2+-ATPase activity was measured at three [Ca^2+]: [Ca^2+]MAX (saturating, pCa 5.4), [Ca^2+]MID (subsaturating, midpoint, pCa 6.2), and [Ca^2+]BAS (basal non-activating, pCa 8.0). 10 μg/mL of SR vesicle, calcium, compound (0.048 to 50 μM), and assay mix were incubated for 20 min at room temperature before measurement of functional assays with each of the 18 hit compounds, because a shorter incubation time than the FRET live-cell assays achieved optimal responses. The assay was started upon the addition of MgATP, at a final concentration of 5 mM (total volume to 80 μL), and absorbance was read at 340 nm in a SpectraMax Plus^384 microplate spectrophotometer (Molecular Devices, Sunnyvale, CA).
as §2

[3] = biological target: T2, human two-color SERCA2a (2CS) biosensor (Homo sapiens, UniProt P16615, INS508[…]); assay: FRET concentration response curves (FLT-FRET) with the 2CS biosensor in live HEK cells; format: cell-based
T2 construct: expressed in transfected cells
From the text: A two-color intramolecular human SERCA2a (2CS) biosensor, based on human cardiac SERCA2a fused to green fluorescent protein (eGFP) and red fluorescent protein (tagRFP) was developed to detect structural changes that are related to the functional changes of SERCA[20],[22],[25]. Briefly, tagRFP was genetically fused to the N-terminus of SERCA (A-domain) and eGFP was inserted as an intrasequence tag before residue 509 in the nucleotide-binding domain (N-domain)[60],[61]. Donor-only and acceptor-only (1CS) biosensors were created in a similar manner as the 2CS biosensor but with the construct containing either only eGFP or only tag-RFP, respectively. […] A null-biosensor construct consisting of eGFP and tagRFP connected by a 32-residue unstructured flexible linker peptide (G32R) was created as described previously[23],[25]. All constructs were cloned into expression vectors containing the genes for antibiotic resistance to G418, puromycin, or blasticidin.
Stable cell lines were generated using either human embryonic kidney (HEK) HEK293 (ATCC, Manassas, VA) or HEK293-6E (National Research Council, Canada) cells. Briefly, cells were transiently transfected with 2CS, 1CS, or G32R null-biosensor plasmids using Lipofecatime 3000 or 293fectin (Thermo Fisher Scientific). Flow cytometry was used to select and enrich for the population of cells expressing respective biosensors. Stable HEK293 cell lines were maintained in phenol red-free DMEM media (Gibco, Waltham, MA) supplemented with 2 mM GlutaMAX (Gibco, Waltham, MA), 10% fetal bovine serum (FBS) (Atlanta Biologicals, Lawrenceville, GA), 1 IU/mL penicillin/streptomycin (Gibco, Waltham, MA), and 250 μg/mL G418 (Fisher Scientific). Stable HEK293-6E cell lines were maintained in F17 media (Sigma Aldrich) supplemented with Kolliphor p188 (Sigma Aldrich, St. Louis, MO), […] GlutaMAX, and either 1 μg/mL puromycin (Invitrogen, Carlsbad, CA) or 2 μg/mL blasticidin (Goldbio) as a selection antibiotic. All cell lines were grown at 37 °C with 5% CO2.
FRET CRC assay plates (0.78–100 μM compound range) with at least ten different compound concentrations were made by adding the appropriate volume of compound or DMSO into black 384 well plates (Greiner Bio-One) using a Mosquito HV (SPTLabTech, United Kingdom). Subsequent Ca^2+-ATPase activity and Ca^2+-transport CRC assay plates (0–50 μM compound range) with repurchased compounds were made in a similar manner using with the Echo 550 (Beckman Coulter) using either 384 well transparent plates (Greiner Bio-One) or black-walled plates with transparent bottoms (Greiner Bio-One), respectively.
On each day of screening, cells were harvested, washed three times with PBS, and centrifuged at 300 g for 5 min. Cells were filtered using a 70 µm cell strainer and diluted to 1–2 × 10^6 cells/mL. Cell concentration and viability were assessed using the Cell countess (Invitrogen) and trypan blue assay. During assays, cells were constantly and gently stirred using a magnetic stir bar at room temperature, keeping the cells in suspension and evenly distributed to avoid clumping. HEK 293-cells expressing 2CS were dispensed at 5 μL or […] per well into assay plates (dispensed into 40 assay plates, each containing 1536 wells) pre-plated with compounds (from a DIVERset 50,000 compound library) using a Multdrop Combi liquid dispenser (Thermo Fisher Scientific, Pittsburg, PA) and sealed until needed. Because the kinetics of membrane permeability, diffusion, and/or binding of the compound to live cells may be compound-dependent, we tested two incubation times, 20 min and 120 min, for the FRET CRC. […] Plates containing eight-point concentration curves of three tool compounds (known SERCA effectors thapsigargin, BHQ, and CPA)[22] were used as positive controls for biosensor function and performance prior to running the full-scale FRET-HTS assay. […]

T1 sequence (P11607 1-997 isoform P11607-2): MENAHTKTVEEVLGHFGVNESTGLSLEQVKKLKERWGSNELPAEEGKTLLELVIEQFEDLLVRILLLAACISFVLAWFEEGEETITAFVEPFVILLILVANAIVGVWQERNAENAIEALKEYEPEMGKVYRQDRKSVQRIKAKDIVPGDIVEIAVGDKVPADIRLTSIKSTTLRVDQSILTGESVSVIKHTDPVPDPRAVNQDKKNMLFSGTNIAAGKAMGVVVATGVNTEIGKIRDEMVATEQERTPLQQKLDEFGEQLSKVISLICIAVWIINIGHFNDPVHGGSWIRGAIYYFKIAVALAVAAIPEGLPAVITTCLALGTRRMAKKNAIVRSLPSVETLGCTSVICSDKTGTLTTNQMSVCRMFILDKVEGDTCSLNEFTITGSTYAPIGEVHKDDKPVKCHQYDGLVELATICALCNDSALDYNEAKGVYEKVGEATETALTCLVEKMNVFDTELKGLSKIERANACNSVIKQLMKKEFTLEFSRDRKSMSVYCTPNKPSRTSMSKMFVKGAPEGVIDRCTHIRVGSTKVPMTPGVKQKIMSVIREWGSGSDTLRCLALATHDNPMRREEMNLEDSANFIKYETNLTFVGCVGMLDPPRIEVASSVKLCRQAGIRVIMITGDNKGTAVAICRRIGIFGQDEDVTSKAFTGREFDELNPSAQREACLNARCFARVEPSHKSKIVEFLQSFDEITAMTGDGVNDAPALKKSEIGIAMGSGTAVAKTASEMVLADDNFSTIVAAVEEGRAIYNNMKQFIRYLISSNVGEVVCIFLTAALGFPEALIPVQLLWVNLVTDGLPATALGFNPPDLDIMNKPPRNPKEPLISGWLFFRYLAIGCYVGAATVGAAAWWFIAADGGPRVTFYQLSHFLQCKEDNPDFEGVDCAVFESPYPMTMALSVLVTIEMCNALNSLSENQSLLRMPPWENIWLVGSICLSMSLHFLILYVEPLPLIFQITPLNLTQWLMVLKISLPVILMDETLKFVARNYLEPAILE
T2 sequence (P16615 other isoform, or with tags, fused parts or gaps with the stated changes): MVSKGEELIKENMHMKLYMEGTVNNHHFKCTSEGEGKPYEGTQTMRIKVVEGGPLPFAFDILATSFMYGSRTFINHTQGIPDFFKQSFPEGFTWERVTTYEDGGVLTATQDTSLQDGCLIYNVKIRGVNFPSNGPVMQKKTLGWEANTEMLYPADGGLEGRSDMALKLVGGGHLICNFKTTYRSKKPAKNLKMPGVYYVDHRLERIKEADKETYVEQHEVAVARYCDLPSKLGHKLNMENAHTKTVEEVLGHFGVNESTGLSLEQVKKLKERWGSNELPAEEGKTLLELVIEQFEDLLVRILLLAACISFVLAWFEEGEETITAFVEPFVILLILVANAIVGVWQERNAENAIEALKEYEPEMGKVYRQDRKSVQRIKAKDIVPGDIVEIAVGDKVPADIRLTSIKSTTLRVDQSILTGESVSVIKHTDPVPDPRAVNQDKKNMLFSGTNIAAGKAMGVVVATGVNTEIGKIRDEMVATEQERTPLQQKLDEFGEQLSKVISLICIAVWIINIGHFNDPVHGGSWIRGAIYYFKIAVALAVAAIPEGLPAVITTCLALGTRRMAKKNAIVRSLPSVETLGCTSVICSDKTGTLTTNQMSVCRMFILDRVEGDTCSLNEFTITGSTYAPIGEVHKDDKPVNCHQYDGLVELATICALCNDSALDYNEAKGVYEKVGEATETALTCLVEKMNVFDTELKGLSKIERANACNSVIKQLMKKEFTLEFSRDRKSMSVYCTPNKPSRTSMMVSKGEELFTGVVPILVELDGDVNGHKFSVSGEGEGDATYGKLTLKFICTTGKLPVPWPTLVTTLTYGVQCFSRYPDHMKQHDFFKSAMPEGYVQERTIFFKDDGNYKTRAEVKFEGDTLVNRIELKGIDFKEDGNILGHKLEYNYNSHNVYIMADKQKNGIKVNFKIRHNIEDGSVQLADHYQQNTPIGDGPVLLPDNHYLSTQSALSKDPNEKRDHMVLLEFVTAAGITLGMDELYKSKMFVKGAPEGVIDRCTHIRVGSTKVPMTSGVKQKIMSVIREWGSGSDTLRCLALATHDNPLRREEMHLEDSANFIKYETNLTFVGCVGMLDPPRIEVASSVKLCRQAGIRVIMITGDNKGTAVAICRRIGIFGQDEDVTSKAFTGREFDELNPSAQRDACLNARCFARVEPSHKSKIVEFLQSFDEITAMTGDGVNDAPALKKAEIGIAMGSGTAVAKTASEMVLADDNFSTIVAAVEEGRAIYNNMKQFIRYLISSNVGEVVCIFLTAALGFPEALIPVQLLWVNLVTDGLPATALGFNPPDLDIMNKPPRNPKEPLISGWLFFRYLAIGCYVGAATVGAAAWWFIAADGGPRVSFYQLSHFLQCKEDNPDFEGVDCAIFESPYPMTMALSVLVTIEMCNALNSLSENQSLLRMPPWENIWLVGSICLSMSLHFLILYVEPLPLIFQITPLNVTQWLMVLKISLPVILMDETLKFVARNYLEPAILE

Row | SMILES | Ca2+-Uptake C10 (SERCA2a [1]; [Ca2+]MAX (pCa5.4)) [µM] | Ca2+-Uptake C10 (SERCA2a [1]; [Ca2+]MID (pCa6.2)) [µM] | CR (coupling ratio) VU/VA (SERCA2a [1]) | Inhibition of Ca2+-uptake (class) (SERCA2a [1]) | Ca2+-ATPase C10 (SERCA2a [2]; [Ca2+]MAX (pCa5.4)) [µM] | Ca2+-ATPase C10 (SERCA2a [2]; [Ca2+]MID (pCa6.2)) [µM] | EC50 [3] [µM] | Ca2+-Uptake ΔFMAX (SERCA2a [1]; [Ca2+]MAX (pCa5.4)) [%] | Ca2+-Uptake ΔFMID (SERCA2a [1]; [Ca2+]MID (pCa6.2)) | Effect on Ca2+-uptake (category, Fig. 4A) (SERCA2a [1]) | Increase in Ca2+-uptake (SERCA2a [1]) | Ca2+-ATPase ΔFMAX (SERCA2a [2]; [Ca2+]MAX (pCa5.4)) | Ca2+-ATPase ΔFMID (SERCA2a [2]; [Ca2+]MID (pCa6.2)) | Effect on Ca2+-ATPase activity (category, Fig. 4A) (SERCA2a [2]) | Decrease (inhibition) of Ca2+-uptake at [Ca2+]MAX (SERCA2a [1]) [%] | Increase in Ca2+-ATPase activity (SERCA2a [2]) | EC50 (SERCA2a [2]; [Ca2+]MAX (pCa5.4)) [µM]
1 | CCc1cnc(N2CC[C@@H](c3ccc4ccccc4c3)[C@H](O)C2)nc1 (relative stereo) [Compound 16, (3S*,4S*)-1-(5-ethylpyrimidin-2-yl)-4-(2-naphthyl)piperidin-3-ol] | 1.2 | 4.2 | 0.22 | M → S; also recorded: moderate-to-strong | 0.5 | 4.7 | 5.6 ± 0.3 | – | – | – | – | – | – | – | – | – | –
2 | O=C(c1cc(COc2ccc3ncccc3c2)on1)N1CCC(c2ccncc2)CC1 [Compound 2, 6-[(3-{[4-(4-pyridinyl)-1-piperidinyl]carbonyl}-5-isoxazolyl)methoxy]quinoline] | – | – | 0.53 | – | 48 | – | 1.4 ± 0.5 | 4 ± 6.1 | 4 ± 2.1% | uncouple | 0.5–10% | 16% and 16 ± 3% | 7% and 7 ± 3% | activate | – | – | –
3 | O=C(c1cc(COc2ccc3c(c2)CCCC3)on1)N1CCC(c2ccncc2)CC1 [Compound 3, 4-[1-({5-[(5,6,7,8-tetrahydro-2-naphthalenyloxy)methyl]-3-isoxazolyl}carbonyl)-4-piperidinyl]pyridine] | 17.5 | – | 0.39 | – | 11.0 | 14.8 | 1.6 ± 0.2 | – | 6% and 6 ± 3.3% | inhibit | – | 21 ± 5.1% | 30 ± 11% | activate | 20 | 10–25% | 8.4 ± 3.1
4 | COc1ccc(Cc2noc(CN3CCN(c4nc5ccccc5s4)CC3)n2)cc1OC [Compound 5, 2-(4-{[3-(3,4-dimethoxybenzyl)-1,2,4-oxadiazol-5-yl]methyl}-1-piperazinyl)-1,3-benzothiazole] | – | 22.5 | 0.47 | – | 22.7 | 19.6 | 1.5 ± 0.1 | – | 20% and 20 ± 3.3% | inhibit | – | 25% and 25 ± 3.3% | 35% and 35 ± 8.2% | activate | 2 | 10–25% | –
5 | CC1Cc2cc(CNC(=O)c3cc(C(C)C)nn3C)ccc2O1 (stereo not drawn) [Compound 9, 3-isopropyl-1-methyl-N-[(2-methyl-2,3-dihydro-1-benzofuran-5-yl)methyl]-1H-pyrazole-5-carboxamide] | – | – | 0.51 | – | 30.7 | – | 0.6 ± 0.1 | 5 ± 2.2 | 3 ± 2.4% | uncouple | 3–5% and 0.5–10% | 21% and 21 ± 5% | 10% and 10 ± 6% | activate | – | – | 24 ± 9
6 | COc1ccc(Cn2cc(C(=O)N(C)Cc3ccnc4ccccc34)nn2)cc1 [Compound 10, 1-(4-methoxybenzyl)-N-methyl-N-(4-quinolinylmethyl)-1H-1,2,3-triazole-4-carboxamide] | 4.1 | 7.9 | 0.35 | Mild → M; also recorded: mild-to-moderate | 7 | 3.2 | 5.6 ± 0.6 | – | – | – | – | – | – | – | – | – | –
